According to US20250313572A1, “MACROCYCLIC MCL-1 INHIBITORS AND METHODS OF USE” (AbbVie Inc., priority 2017, published 2025):
Where two headings read alike, the source gives them in different places.

Experiments:
[1] = tested on: AMO-1 human multiple myeloma tumor cell line; assay: AMO-1 cell viability assay (CellTiter-Glo, 24 hours); type: cell-based
[2] = target: GST-MCL-1 (Homo sapiens, UniProt Q07820); assay: TR-FRET MCL-1 binding assay (competition with probe F-Bak)
Procedure, shortened: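 Displacement of F-Bak from GST-MCL-1 is detected by time-resolved FRET with a Tb-labelled anti-GST antibody, with excitation 340/35 nm and emission 520/525 and 495/510 nm, after 2 hours at room temperature. Compounds were titrated in 11 three-fold steps starting at 25 μM final, in buffer alone or in 10% HS.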

[3] = tested on: NCI-H929 human multiple myeloma tumor cell line; assay: NCI-H929 cell viability assay (CellTiter-Glo, 24 hours); type: cell-based
[4] = Homo sapiens, AMO1, 24 h, read-out: AMO-1 Viability IC50 (μM, 10% FBS), 10% FBS, 24 hours of compound treatment
[5] = MCL-1 Binding Ki (nM, 10% HS), in the presence of 10% HS (human serum)
[6] = without HS, read-out: MCL-1 Binding Ki
[7] = Homo sapiens, NCI-H929, 24 h, read-out: H929 Viability IC50 (μM, 10% FBS), 10% FBS, 24 hours of compound treatment

Chain of GST-MCL-1 (Q07820 whole entry): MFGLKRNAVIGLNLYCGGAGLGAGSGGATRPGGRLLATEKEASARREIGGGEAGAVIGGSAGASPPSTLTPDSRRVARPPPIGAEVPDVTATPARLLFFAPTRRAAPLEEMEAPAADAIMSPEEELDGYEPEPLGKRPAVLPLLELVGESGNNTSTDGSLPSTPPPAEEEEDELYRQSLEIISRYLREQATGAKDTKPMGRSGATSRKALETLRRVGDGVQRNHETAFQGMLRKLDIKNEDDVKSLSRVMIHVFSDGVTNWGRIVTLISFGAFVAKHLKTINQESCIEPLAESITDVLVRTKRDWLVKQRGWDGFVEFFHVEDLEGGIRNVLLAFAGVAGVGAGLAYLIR

Structure (SMILES) | IC50 [1, 4] [µM] | Ki [2, 5] [nM] | Ki [2, 6] [nM] | IC50 [3, 7] [µM] | IC50 ([1]; read-out: AMO-1 Viability IC50 (μM, 10% FBS), 10% FBS, 24 hours of compound treatment) [µM] | IC50 ([3]; read-out: H929 Viability IC50 (μM, 10% FBS), 10% FBS, 24 hours of compound treatment) [µM]
COCCOCCOCC1(F)CC=C(c2nccc(COc3ccc4cc3C[C@H](C(=O)O)Oc3ncnc5sc(C6CCC6)c(c35)-c3c(C)c(Cl)c(c(Cl)c3C)O[C@H](CN3CCN(C)CC3)CO4)n2)CC1 (single isomer, unassigned) [Example 130, (7R,16R)-19,23-dichloro-1-cyclobutyl-10-({2-[(4R*)-4-fluoro-4-{[2-(2-methoxyethoxy)ethoxy]methyl}cyclohex-1-en-1-yl]pyrimidin-4-yl}methoxy)-20,22-dimethyl-16-[(4-methylpiperazin-1-yl)methyl]-7,8,15,16-tetrahydro-18,21-etheno-13,9-(metheno)-6,14,17-trioxa-2-thia-3,5-diazacyclononadeca[1,2,3-cd]indene-7-carboxylic Acid] | 0.000309 | 1.74 | 0.026 | 0.000489 | – | –
Cc1c(Cl)c2c(Cl)c(C)c1-c1c(-c3ccc(F)cc3)sc3ncnc(c13)O[C@@H](C(=O)O)Cc1cc(ccc1OCc1ccnc(N3CC4CC(C4)C3)n1)OC[C@@H](CN1CCN(C)CC1)O2 [Example 171, (7R,16R)-10-{[2-(3-azabicyclo[3.1.1]heptan-3-yl)pyrimidin-4-yl]methoxy}-19,23-dichloro-1-(4-fluorophenyl)-20,22-dimethyl-16-[(4-methylpiperazin-1-yl)methyl]-7,8,15,16-tetrahydro-18,21-etheno-13,9-(metheno)-6,14,17-trioxa-2-thia-3,5-diazacyclononadeca[1,2,3-cd]indene-7-carboxylic Acid] | 0.00112 | 3.98 | 0.1 | 0.00757 | – | –
Cc1c(Cl)c2c(Cl)c(C)c1-c1c(-c3ccc(F)cc3)sc3ncnc(c13)O[C@@H](C(=O)O)Cc1cc(ccc1OCc1ccnc(-c3cccc(CP(C)(C)=O)c3)n1)OC[C@@H](CN1CCN(C)CC1)O2 [Example 51, (7R,16R)-19,23-dichloro-10-[(2-{3-[(dimethylphosphoryl)methyl]phenyl}pyrimidin-4-yl)methoxy]-1-(4-fluorophenyl)-20,22-dimethyl-16-[(4-methylpiperazin-1-yl)methyl]-7,8,15,16-tetrahydro-18,21-etheno-13,9-(metheno)-6,14,17-trioxa-2-thia-3,5-diazacyclononadeca[1,2,3-cd]indene-7-carboxylic Acid] | 0.0034 | 0.076 | 0.011 | 0.00671 | – | –
COC[C@@H](COc1ccc(-c2nccc(COc3ccc4cc3C[C@H](C(=O)O)Oc3ncnc5sc(-c6ccc(F)cc6)c(c35)-c3c(C)c(Cl)c(c(Cl)c3C)O[C@H](CN3CCN(C)CC3)CO4)n2)cc1)OC [Example 136, (7R,16R)-19,23-dichloro-10-[(2-{4-[(25)-2,3-dimethoxypropoxy]phenyl}pyrimidin-4-yl)methoxy]-1-(4-fluorophenyl)-20,22-dimethyl-16-[(4-methylpiperazin-1-yl)methyl]-7,8,15,16-tetrahydro-18,21-etheno-9,13-(metheno)-6,14,17-trioxa-2-thia-3,5-diazacyclononadeca[1,2,3-cd]indene-7-carboxylic acid] | 0.000403 | 0.758 | 0.027 | 0.000392 | – | –
COCCOCCOCCOCCOCC1(F)CC=C(c2nccc(COc3ccc4cc3C[C@H](C(=O)O)Oc3ncnc5sc(-c6ccc(F)cc6)c(c35)-c3c(C)c(Cl)c(c(Cl)c3C)O[C@H](CN3CCN(C)CC3)CO4)n2)CC1 (single isomer, unassigned) [Example 114, (7R,16R)-19,23-dichloro-10-({2-[(4S*)-4-fluoro-4-(2,5,8,11,14-pentaoxapentadecan-1-yl)cyclohex-1-en-1-yl]pyrimidin-4-yl}methoxy)-1-(4-fluorophenyl)-20,22-dimethyl-16-[(4-methylpiperazin-1-yl)methyl]-7,8,15,16-tetrahydro-18,21-etheno-13,9-(metheno)-6,14,17-trioxa-2-thia-3,5-diazacyclononadeca[1,2,3-cd]indene-7-carboxylic Acid] | – | 0.15 | 0.018 | – | 0.000197 | 0.000331
COCCOCCOc1cc(COc2ccc3cc2C[C@H](C(=O)O)Oc2ncnc4sc(-c5ccc(F)cc5)c(c24)-c2c(C)c(Cl)c(c(Cl)c2C)O[C@H](CN2CCN(C)CC2)CO3)nc(-c2ccccc2OC)n1 [Example 169, (7R,16R)-19,23-dichloro-1-(4-fluorophenyl)-10-({6-[2-(2-methoxyethoxy)ethoxy]-2-(2-methoxyphenyl)pyrimidin-4-yl}methoxy)-20,22-dimethyl-16-[(4-methylpiperazin-1-yl)methyl]-7,8,15,16-tetrahydro-18,21-etheno-13,9-(metheno)-6,14,17-trioxa-2-thia-3,5-diazacyclononadeca[1,2,3-cd]indene-7-carboxylic Acid] | 0.000306 | 0.631 | 0.03 | 0.00115 | – | –
Cc1c(Cl)c2c(Cl)c(C)c1-c1c(-c3ccc(F)cc3)sc3ncnc(c13)O[C@@H](C(=O)O)Cc1cc(ccc1OCc1ccnc(C3=CCC(CC(=O)O)CC3)n1)OC[C@@H](CN1CCN(C)CC1)O2 (single isomer, unassigned) [Example 35, (7R,16R)-10-({2-[(4S*)-4-(carboxymethyl)cyclohex-1-en-1-yl]pyrimidin-4-yl}methoxy)-19,23-dichloro-1-(4-fluorophenyl)-20,22-dimethyl-16-[(4-methylpiperazin-1-yl)methyl]-7,8,15,16-tetrahydro-18,21-etheno-13,9-(metheno)-6,14,17-trioxa-2-thia-3,5-diazacyclononadeca[1,2,3-cd]indene-7-carboxylic Acid] | 0.01 | 0.113 | 0.007 | 0.017 | – | –
Cc1c(Cl)c2c(Cl)c(C)c1-c1c(-c3ccc(F)cc3)sc3ncnc(c13)O[C@@H](C(=O)O)Cc1cc(ccc1OCc1ccnc([C@H]3CC[C@@H](CC(=O)O)CC3)n1)OC[C@@H](CN1CCN(C)CC1)O2 [Example 31, (7R,16R)-10-({2-[(1 s,4s)-4-(carboxymethyl)cyclohexyl]pyrimidin-4-yl}methoxy)-19,23-dichloro-1-(4-fluorophenyl)-20,22-dimethyl-16-[(4-methylpiperazin-1-yl)methyl]-7,8,15,16-tetrahydro-18,21-etheno-13,9-(metheno)-6,14,17-trioxa-2-thia-3,5-diazacyclononadeca[1,2,3-cd]indene-7-carboxylic Acid] | 0.00743 | 0.049 | 0.004 | 0.0133 | – | –
CO[C@@H]1CO[C@H]2[C@@H]1OC[C@H]2OCCOc1nccc(COc2ccc3cc2C[C@H](C(=O)O)Oc2ncnc4sc(-c5ccc(F)cc5)c(c24)-c2c(C)c(Cl)c(c(Cl)c2C)O[C@H](CN2CCN(C)CC2)CO3)n1 [Example 134, (7R,16R)-19,23-dichloro-1-(4-fluorophenyl)-10-{[2-(2-{[(3R,3aR,6R,6aR)-6-methoxyhexahydrofuro[3,2-b]furan-3-yl]oxy}ethoxy)pyrimidin-4-yl]methoxy}-20,22-dimethyl-16-[(4-methylpiperazin-1-yl)methyl]-7,8,15,16-tetrahydro-18,21-etheno-13,9-(metheno)-6,14,17-trioxa-2-thia-3,5-diazacyclononadeca[1,2,3-cd]indene-7-carboxylic Acid] | 0.00304 | 0.339 | 0.047 | 0.01 | – | –
Cc1c(Cl)c2c(Cl)c(C)c1-c1c(-c3ccc(F)cc3)sc3ncnc(c13)O[C@@H](C(=O)O)Cc1cc(ccc1OCc1ccnc(N3CCC(C)(N4CCOCC4)CC3)n1)OC[C@@H](CN1CCN(C)CC1)O2 [Example 144, (7R,16R)-19,23-dichloro-1-(4-fluorophenyl)-20,22-dimethyl-10-({2-[4-methyl-4-(morpholin-4-yl)piperidin-1-yl]pyrimidin-4-yl}methoxy)-16-[(4-methylpiperazin-1-yl)methyl]-7,8,15,16-tetrahydro-18,21-etheno-13,9-(metheno)-6,14,17-trioxa-2-thia-3,5-diazacyclononadeca[1,2,3-cd]indene-7-carboxylic Acid] | 0.00178 | > 444 | 10.9 | 0.0077 | – | –
COCCOCCOCCN(CCOCCOCCOC)c1nccc(COc2ccc3cc2C[C@H](C(=O)O)Oc2ncnc4sc(-c5ccc(F)cc5)c(c24)-c2c(C)c(Cl)c(c(Cl)c2C)O[C@H](CN2CCN(C)CC2)CO3)n1 [Example 93, (7R,16R)-10-{[2-(bis{2-[2-(2-methoxyethoxy)ethoxy]ethyl}amino)pyrimidin-4-yl]methoxy}-19,23-dichloro-1-(4-fluorophenyl)-20,22-dimethyl-16-[(4-methylpiperazin-1-yl)methyl]-7,8,15,16-tetrahydro-18,21-etheno-13,9-(metheno)-6,14,17-trioxa-2-thia-3,5-diazacyclononadeca[1,2,3-cd]indene-7-carboxylic Acid] | 0.00553 | 4.34 | 0.748 | 0.00424 | – | –
